# Numbering of substitutions follows the chain as printed.
# Legend:
# Assay type in all cases: biochemical
# zHDAC6 (WT) = target: T1, zHDAC6 (WT) (Danio rerio, UniProt F8W4B7); experiment: Inhibition assay, zebrafish HDAC6 catalytic DD2 domain, wild type
# T1 construct: Danio rerio HDAC6 (amino acids 440–798; zHDAC6); His (N, cleaved yes); MBP (N, cleaved yes); made in house; host or cells: RIPL Escherichia coli
# T1 sequence (F8W4B7 440-798): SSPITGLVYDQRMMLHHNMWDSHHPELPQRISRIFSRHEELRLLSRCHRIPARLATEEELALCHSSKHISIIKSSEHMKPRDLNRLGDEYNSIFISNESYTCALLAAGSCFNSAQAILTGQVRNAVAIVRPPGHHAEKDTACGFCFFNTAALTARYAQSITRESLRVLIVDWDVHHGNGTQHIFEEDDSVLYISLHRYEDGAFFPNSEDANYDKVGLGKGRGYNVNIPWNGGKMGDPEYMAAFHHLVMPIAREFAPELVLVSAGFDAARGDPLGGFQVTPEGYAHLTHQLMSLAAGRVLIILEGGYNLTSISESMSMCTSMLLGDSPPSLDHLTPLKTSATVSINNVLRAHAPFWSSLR
# Procedure: The second catalytic domain of Danio rerio HDAC6 (amino acids 440–798; zHDAC6) was expressed in RIPL Escherichia coli as described previously using the pEC566-zHDAC6 expression vector.[16],[38] Briefly, bacteria were incubated at 37 °C with shaking (250 rpm) until the optical density reached an OD600 = 0.5. Then, the culture was cooled to 18 °C for 1 h, and recombinant protein expression was induced by the addition of 75 μM isopropyl β-D-1-thiogalactopyranoside together with 200 μM ZnSO4. The culture was grown at 18 °C for an additional 18 h and harvested by centrifugation at 5500g for 15 min. The cell pellet was resuspended in the lysis buffer (50 mM phosphate, 300 mM NaCl, 10% glycerol, and 20 mM imidazole at pH 8; 5 mL g^–1 bacterial pellet) and lysed by three passages through EmulsiFlex (Avestin). Cell lysates were centrifuged (15,000g at 4 °C for 20 min), and the fusion protein in the supernatant was purified via Ni-NTA chromatography. […] The purity of protein preparations was monitored by SDS-PAGE (Figure S2).
# Optimized fluorometric assays were used to determine inhibition constants of studied compounds against individual HDAC isoforms as described previously.[32] […] Deacetylation reactions were monitored either by high-performance liquid chromatography (HPLC) (HDAC10) or by quantification of released AMC (λex/λem = 365/440 nm) using a CLARIOstar plate reader (BMG Labtech GmbH).
# HDAC6(H574A) mutant = target: T2, HDAC6(H574A) mutant (Danio rerio, UniProt F8W4B7, H574A); experiment: Inhibitor hydrolysis in vitro by HDAC6(H574A) mutant (LC-MS/MS); conditions: 20 μM compound, 2 μM enzyme, 30 °C
# T2 construct: Danio rerio HDAC6 (amino acids 440–798; zHDAC6); His (N, cleaved yes); MBP (N, cleaved yes); made in house; host or cells: RIPL Escherichia coli
# T2 sequence (F8W4B7 440-798 H574A): T1 sequence (F8W4B7 440-798) with H135A
# Procedure: (§1) The zHDAC6 mutants (Y745F and H574A) were constructed using the Quick-change site-directed mutagenesis protocol with the pEC566-zHDAC6 expression plasmid as a template. Both mutants were expressed and purified as described above for wild-type zHDAC6 (Figure S2).
# (§2) Mass spectrometry quantification of inhibitors/reaction products was carried out with a Shimadzu LCMS-8040 instrument (Shimadzu, HPLC Prominence system). Analytes were separated on a Kinetex XB-C18 2.6 μm, 100 Å column (50 × 2.1 mm; Phenomenex) in a linear 15–60% CH3CN/H2O gradient containing 0.1% formic acid at a flow rate of 0.8 mL min^–1 over 4 min. Multiple reaction monitoring (MRM) parameters were optimized for each analyte, and corresponding major CID fragments were used for quantification. Analytes were quantified using corresponding calibration curves generated from pure compounds dissolved in water.
# (§3) […] […] Four microliter aliquots of reaction mixtures were injected into the system directly from the 96-well plate, and inhibitors/reaction products were quantitated as described above.
# HDAC6(Y745F) mutant = target: T3, HDAC6(Y745F) mutant (Danio rerio, UniProt F8W4B7, Y745F); experiment: Inhibitor hydrolysis in vitro by HDAC6(Y745F) mutant (LC-MS/MS); conditions: 30 °C; for hydrolysis by the HDAC6(Y745F) mutant: 20 μM compound, 2 μM enzyme
# T3 construct: Danio rerio HDAC6 (amino acids 440–798; zHDAC6); His (N, cleaved yes); MBP (N, cleaved yes); made in house; host or cells: RIPL Escherichia coli
# T3 sequence (F8W4B7 440-798 Y745F): T1 sequence (F8W4B7 440-798) with Y306F
# Procedure: as §1, §2, §3
compound,measurement,setting,value
CS(=O)(=O)N(Cc1ccc(C(=O)NN)cn1)c1cccc(Cl)c1 [compound 4],IC50,zHDAC6 (WT),3.87 ± 1.64 µM
CS(=O)(=O)N(Cc1ccc(-c2nnc(C(F)F)o2)cn1)c1cccc(Cl)c1 [compound 8],hydrolysis by the HDAC6(H574A) mutant,HDAC6(H574A) mutant,no hydrolysis was observed
same,rate of hydrolysis by the HDAC6(Y745F) mutant relative to wild type,"HDAC6(Y745F) mutant; 20 μM 8, 2 μM enzyme",comparable to the wild-type HDAC6
same,hydrolysis by the HDAC6(Y745F) mutant,HDAC6(Y745F) mutant,hydrolyzed
CS(=O)(=O)N(Cc1ccc(C(=O)NNC(=O)C(F)F)cn1)c1cccc(Cl)c1 [compound 6],hydrolysis by the HDAC6(Y745F) mutant,HDAC6(Y745F) mutant,hydrolyzed
same,IC50,zHDAC6 (WT),41.7 µM
